Data as given in paper PMC10999543, “Identification of kinase modulators as host-directed therapeutics against intracellular methicillin-resistant Staphylococcus aureus” (Frontiers in Cellular and Infection Microbiology, 2024).
Where two headings read alike, the source gives them in different places.

Assays:
HeLa cells = assay: Compound screen by flow cytometry: HeLa cell count as surrogate readout of cell viability (z-scoreHeLa); assay type: cell-based, human; conditions: for z-scoreHeLa mean: mean of 3 replicates; for z-scoreHeLa rep 1 / cell count rep 1: replicate 1; for z-scoreHeLa rep 2 / cell count rep 2: replicate 2; for z-scoreHeLa rep 3 / cell count rep 3: replicate 3
Description: (§1) The cells were resuspended in cell culture medium without antibiotics, seeded with 10,000 cells/well into Costar flat-bottom 96-well plates (Corning, Amsterdam, the Netherlands), and were incubated overnight at 37°C/5% CO2. The next day, the bacteria were centrifuged at ≥1800 g for 15 min and resuspended in cold PBS + 5 mM ethylenediaminetetraacetic acid (EDTA). The number of CFUs present in the bacterial suspension was estimated from the optical density at 600 nm (OD600) by assuming 8x10^8 CFUs to be present in a bacterial suspension with OD600 = 1, based on prior titrations. The bacterial suspension was diluted in cell culture medium without antibiotics and added to the cells. Accuracy of the multiplicity of infection (MOI) was validated by plating serial dilutions of the MRSA inoculums on Difco TS agar plates (BD Biosciences). The calculated mean MOI throughout all experiments was 6.8 ± 4.6 (mean ± SD). Infected cells were centrifuged for 3 min at 150 g and incubated for 1 hour at 37°C/5% CO2. Next, the cells were incubated with fresh cell culture medium supplemented with 30 µg/ml gentamicin sulphate (Lonza BioWhittaker, Basel, Switzerland) for 15 min at 37°C/5% CO2 to kill residual extracellular bacteria. Infected cells were incubated overnight at 37°C/5% CO2 in cell culture medium in the presence of kinase inhibitors and 5 µg/ml gentamicin sulphate-containing medium to prevent the growth of extracellular bacteria. The solvent of the compounds, DMSO, was used at equal % v/v as a negative control. For the screen, each compound was tested in triplicate, on separate cell culture plates, resulting in triplicate values for each kinase inhibitor.
(§2) HeLa cells were harvested by trypsinization and fixed with 1% paraformaldehyde. Samples were measured on a FACSLyric with HTS extension (BD Biosciences). Flow cytometry data were analysed using FlowJo version 10 (TreeStar, Ashland, OR, USA). HeLa cells positive for GFP were gated to calculate the percentage of MRSA-infected cells. The cell count was used as surrogate readout of cell viability.
To minimize the possibility that the presence of extreme values on a plate affected the z-scores, raw values that deviated two-fold from the negative controls were excluded when calculating plate means and standard deviations as used in the aforementioned formula. Compounds were considered a “hit” when z-scoreMRSA+ ≤ -2 and z-scoreHeLa ≥ -3 for cell count. In cases where compounds were screened twice, the average values were used to select hit compounds.

intracellular MRSA = assay type: cell-based, Staphylococcus aureus; conditions: for z-scoreMRSA+ mean: mean of 3 replicates; for z-scoreMRSA+ rep 1 / %GFP+ rep 1: replicate 1; for z-scoreMRSA+ rep 2 / %GFP+ rep 2: replicate 2; for z-scoreMRSA+ rep 3 / %GFP+ rep 3: replicate 3
Description: as §1, §2
To identify potential “hit” compounds, the flow cytometry data were used to calculate standard z-scores using z = (x-μ)/σ – zneg, where x is total event count or the percent of GFP-positive cells from a single well, μ is the mean from wells of the plate, σ is the standard deviation of the plate and zneg is the mean z-score of the negative control of the plate (i.e., DMSO) ([Korbee et al., 2018]). To minimize the possibility that the presence of extreme values on a plate affected the z-scores, raw values that deviated two-fold from the negative controls were excluded when calculating plate means and standard deviations as used in the aforementioned formula. Compounds were considered a “hit” when z-scoreMRSA+ ≤ -2 and z-scoreHeLa ≥ -3 for cell count. In cases where compounds were screened twice, the average values were used to select hit compounds.

[1] = PKIS compound screen, Yes/No call
[2] = PKIS compounds raw data, HeLa cell count
[3] = PKIS compound screen, Yes/No call (effect without cell death)
[4] = PKIS compounds raw data, MRSA-infected HeLa cells
[5] = PKIS compound screen raw data, HeLa cell count
[6] = PKIS compound screen, HeLa cell count
[7] = PKIS compound screen, Yes/No call on z-scoreHeLa
[8] = PKIS compound screen raw data, MRSA-infected HeLa cells
[9] = PKIS compound screen, MRSA-infected HeLa cells
[10] = PKIS compound screen, Yes/No call on z-scoreMRSA+
[11] = compound screen, HeLa cell count
[12] = Yes/No: effect without cell death
[13] = compound screen, MRSA-infected HeLa cells

SMILES	cell death (HeLa cells; [1])	z-scoreHeLa mean (HeLa cells; PKIS compound screen)	z-scoreHeLa rep 1 (HeLa cells; PKIS compound screen)	z-scoreHeLa rep 2 (HeLa cells; PKIS compound screen)	z-scoreHeLa rep 3 (HeLa cells; PKIS compound screen)	cell count rep 1 (HeLa cells; [2])	cell count rep 2 (HeLa cells; [2])	cell count rep 3 (HeLa cells; [2])	effect (intracellular MRSA; [1])	hit (intracellular MRSA; [3])	z-scoreMRSA+ mean (intracellular MRSA; PKIS compound screen)	z-scoreMRSA+ rep 1 (intracellular MRSA; PKIS compound screen)	z-scoreMRSA+ rep 2 (intracellular MRSA; PKIS compound screen)	z-scoreMRSA+ rep 3 (intracellular MRSA; PKIS compound screen)	%GFP+ rep 1 (intracellular MRSA; [4]) [%]	%GFP+ rep 2 (intracellular MRSA; [4]) [%]	%GFP+ rep 3 (intracellular MRSA; [4]) [%]	cell count rep 1 (HeLa cells; [5])	cell count rep 2 (HeLa cells; [5])	cell count rep 3 (HeLa cells; [5])	also measured
O=C(c1ccc(-c2cc(-c3c[nH]nc3-c3ccccn3)ccn2)cc1)N1CCOCC1 [GW812171X]	No	1.19	2.02	0.77	0.78	9409	7175	6822	No	No	-0.14	-0.40	-0.08	0.06	25.0	25.6	27.6				
COC(=O)c1cccc(NC(=O)NC2CCN(c3ccnc(NCc4ccc(F)cc4)n3)CC2)c1 [GSK1379860A]	No	-1.76	-1.69	-2.71	-0.89	3229	1923	4200	No	No	0.11	0.51	-0.14	-0.03	29.7	25.3	27.1	26314	10320	10213	z-scoreHeLa mean (HeLa cells; [6]): -1.64; z-scoreHeLa rep 1 (HeLa cells; [6]): -0.66; z-scoreHeLa rep 2 (HeLa cells; [6]): -2.56; z-scoreHeLa rep 3 (HeLa cells; [6]): -1.70; cell death (HeLa cells; [7]): No; %GFP+ rep 1 (intracellular MRSA; [8]): 17.4%; %GFP+ rep 2 (intracellular MRSA; [8]): 15.1%; %GFP+ rep 3 (intracellular MRSA; [8]): 20.5%; z-scoreMRSA+ mean (intracellular MRSA; [9]): -0.58; z-scoreMRSA+ rep 1 (intracellular MRSA; [9]): -0.37; z-scoreMRSA+ rep 2 (intracellular MRSA; [9]): -1.18; z-scoreMRSA+ rep 3 (intracellular MRSA; [9]): -0.20; effect (intracellular MRSA; [10]): No
COc1ccc(-c2oc3ncnc(N)c3c2-c2ccc(NC(=O)Nc3cc(C(F)(F)F)ccc3F)cc2)cc1 [GW768505A]						2576	4064	5860							11.3	13.4	12.4				cell death (HeLa cells; Yes/No call from z-scoreHeLa): No; z-scoreHeLa mean (HeLa cells; [11]): -0.89; z-scoreHeLa rep 1 (HeLa cells; [11]): -1.99; z-scoreHeLa rep 2 (HeLa cells; [11]): -0.15; z-scoreHeLa rep 3 (HeLa cells; [11]): -0.53; effect (intracellular MRSA; Yes/No call from z-scoreMRSA+): No; hit (intracellular MRSA; [12]): No; z-scoreMRSA+ mean (intracellular MRSA; [13]): -0.55; z-scoreMRSA+ rep 1 (intracellular MRSA; [13]): -0.60; z-scoreMRSA+ rep 2 (intracellular MRSA; [13]): -0.0319; z-scoreMRSA+ rep 3 (intracellular MRSA; [13]): -1.03
Nc1nccc2scc(-c3ccc4c(c3)CCN4C(=O)Cc3ccccc3)c12 [GSK2576924A]																		3006	3066	3447	cell death (HeLa cells; Yes/No call from z-scoreHeLa): No; z-scoreHeLa mean (HeLa cells; [11]): -1.02; z-scoreHeLa rep 1 (HeLa cells; [11]): -0.97; z-scoreHeLa rep 2 (HeLa cells; [11]): -0.95; z-scoreHeLa rep 3 (HeLa cells; [11]): -1.13; %GFP+ rep 1 (intracellular MRSA; [8]): 25.5%; %GFP+ rep 2 (intracellular MRSA; [8]): 24.3%; %GFP+ rep 3 (intracellular MRSA; [8]): 22.9%; effect (intracellular MRSA; Yes/No call from z-scoreMRSA+): No; hit (intracellular MRSA; [12]): No; z-scoreMRSA+ mean (intracellular MRSA; [13]): 0.22; z-scoreMRSA+ rep 1 (intracellular MRSA; [13]): 0.05; z-scoreMRSA+ rep 2 (intracellular MRSA; [13]): 0.41; z-scoreMRSA+ rep 3 (intracellular MRSA; [13]): 0.21
COc1cc(/C=N/Nc2ncnc3[nH]ncc23)ccc1O [GW578748X]	No	0.25	-0.52	1.00	0.26	4206	5592	7495	No	No	-1.18	-0.92	-1.14	-1.48	10.3	10.1	10.9				
COc1ccc(Nc2nccc(N3CCC(NC(=O)C(C)c4ccc(Cl)cc4)CC3)n2)cc1 (centres unmarked) [GSK1379812A]	No	0.45	0.54	0.66	0.15	6940	7004	5839	No	No	0.50	0.81	0.11	0.60	31.2	26.6	30.5	31442	27526	20779	z-scoreHeLa mean (HeLa cells; [6]): 0.32; z-scoreHeLa rep 1 (HeLa cells; [6]): 0.21; z-scoreHeLa rep 2 (HeLa cells; [6]): 0.39; z-scoreHeLa rep 3 (HeLa cells; [6]): 0.36; cell death (HeLa cells; [7]): No; %GFP+ rep 1 (intracellular MRSA; [8]): 20.9%; %GFP+ rep 2 (intracellular MRSA; [8]): 22.5%; %GFP+ rep 3 (intracellular MRSA; [8]): 23.9%; z-scoreMRSA+ mean (intracellular MRSA; [9]): 0.71; z-scoreMRSA+ rep 1 (intracellular MRSA; [9]): 0.57; z-scoreMRSA+ rep 2 (intracellular MRSA; [9]): 0.84; z-scoreMRSA+ rep 3 (intracellular MRSA; [9]): 0.73; effect (intracellular MRSA; [10]): No
